Test results taken from patent US20260062408A1, “PRODRUGS OF S[…]” (SYNEX HOLDINGS BV, priority 2022, published 2026).

Columns and labels:
5-HT2A receptor = target: T1, 5-HT2A receptor (Mus musculus, UniProt P35363); settings: 1 mg/kg i.p., 30 min, same assay conditions; data from Halberstadt et al. 2019; cited from earlier work
T1 construct: tissue Jackson Laboratories; host or cells: living male C57BL/6J mice (whole animal, brain)

[1] = Psychedelic effect in volunteers experienced with ALD-52; assay type: in vivo, humans; settings: human volunteers; for Substitution for ALD-52 / Emax: administered as tartrate salt; for Emax: relative to ALD-52 = 1, read-out: Maximum psychedelic effect produced (ALD-52 = 1); for Duration: duration of effect relative to ALD-52
Method: Compounds of the invention were tested on volunteers who were experienced with the use of the related compound ALD-52. For each compound, a solution was prepared by dissolving the tartrate salt in deionized water to produce a concentration either of 1 mg/ml of the tartrate salt, or calculated to be equivalent to 1 mg/ml of the free base. This was either administered directly, or was prepared into standardised dosage units by pipetting 0.1 ml of solution onto a square of perforated blotter paper, which was placed overnight in a desiccator and allowed to evaporate to dryness.

[2] = Preventative treatment of chronic cluster headache attacks in volunteers, eight weeks; assay type: in vivo, humans; settings: for average self-rated severity of cluster headache attacks: baseline 8.78/10; for average cluster headache attacks per day: baseline 3.44 attacks per day
Description: Eighteen volunteers were recruited through cluster headache support groups in the Netherlands. Age range of volunteers was between 23 to 67 (average 45.17), 14 males and 4 females. All volunteers had previous experience using psychedelic drugs such as LSD or psilocybin to alleviate cluster headache attacks, as well as prescribed medications including verapamil, prednisone, sumatriptan, topiramate and indomethacin. Volunteers were asked to discontinue use of prescribed medications for five days preceding the commencement of the study and for the eight-week duration.
Participants were supplied standardised 3.0 mg dosage units of SYN-L-017 as the tartrate salt (equivalent to 2.58 mg of SYN-L-017 freebase), measured into capsules for oral administration. These were tested as a preventative for chronic cluster headache attacks. One 3 mg capsule was administered intermittently in a pattern of one day on, two days off for a period of eight weeks (using the protocol described in Karst et al. (Karst M, et al. The non-hallucinogen 2-bromo-lysergic acid diethylamide as preventative treatment for cluster headache: An open, non-randomized case series. Cephalalgia 2010; 30(9):1140-1144. DOI: 10.1177/0333102410363490)) and the volunteers were asked to keep a diary to track the frequency and self-rated severity of cluster headache attacks on a scale of 1-10.

T1 sequence (P35363 whole entry): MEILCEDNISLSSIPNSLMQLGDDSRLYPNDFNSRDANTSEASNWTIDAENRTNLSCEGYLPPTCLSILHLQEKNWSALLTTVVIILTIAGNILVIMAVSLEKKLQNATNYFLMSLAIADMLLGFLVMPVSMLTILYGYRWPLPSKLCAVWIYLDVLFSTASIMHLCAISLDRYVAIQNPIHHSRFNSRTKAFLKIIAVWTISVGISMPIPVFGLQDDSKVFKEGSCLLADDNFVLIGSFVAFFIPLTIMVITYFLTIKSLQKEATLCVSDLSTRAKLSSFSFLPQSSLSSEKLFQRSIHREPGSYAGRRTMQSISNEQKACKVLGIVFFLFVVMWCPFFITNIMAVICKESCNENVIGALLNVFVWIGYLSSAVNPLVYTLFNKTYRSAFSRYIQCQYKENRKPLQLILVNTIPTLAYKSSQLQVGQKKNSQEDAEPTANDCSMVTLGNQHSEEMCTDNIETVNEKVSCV

Compound	Substitution for ALD-52 [1]	Emax [1]	further results
CCN(CC)C(=O)[C@@H]1C=C2c3cccc4c3c(cn4C(C)=O)C[C@H]2N(C)C1 [ALD-52, 1-acetyl-d-lysergic acid diethylamide]			average HTR count (5-HT2A receptor): 16.6
CCCCCCCCCCCC(=O)n1cc2c3c(cccc31)C1=C[C@@H](C(=O)N(CC)CC)CN(C)[C@@H]1C2 [SYN-L-004, 1-dodecanoyl-lysergic acid diethylamide]	Partial	25%	Duration [1]: Slightly longer
CCN(CC)C(=O)[C@@H]1C=C2c3cccc4c3c(cn4C(=O)c3ccccc3C)C[C@H]2N(C)C1 [SYN-L-008, 1-(o-toluoyl)-lysergic acid diethylamide]	Partial	25%	
CCN(CC)C(=O)[C@@H]1C=C2c3cccc4c3c(cn4S(=O)(=O)C3CC3)C[C@H]2N(C)C1 [SYN-L-014, 1-cyclopropanesulfonyl-lysergic acid diethylamide]	No substitution	0%	
CCC(=O)n1c(Br)c2c3c(cccc31)C1=C[C@@H](C(=O)N(CC)CC)CN(C)[C@@H]1C2 [SYN-L-017, 1-propionyl-2-bromo-lysergic acid diethylamide]	No substitution	0%	average self-rated severity of cluster headache attacks ([2]; after four weeks, 3 mg tartrate capsule oral, one day on, two days off): 4.46 /10; average cluster headache attacks per day ([2]; after four weeks): 2.13 attacks per day; side effects consistent with psychedelic effects ([2]; eight-week study): No side effects consistent with psychedelic effects were reported; volunteers reporting no side effects of any significance ([2]; eight-week study): 75%; volunteers reporting side effects including dizziness, nausea, fatigue, difficulty concentrating and insomnia ([2]; eight-week study): 25%; volunteers who thought the drug more effective than their normally used prescribed medication ([2]; eight-week study): 83.33%; perceived severity of side effects ([2]; eight-week study, none rated moderate or severe): mild; average cluster headache attacks per day ([2]; end of the eight weeks): 1.78 attacks per day; average self-rated severity of cluster headache attacks ([2]; end of the eight weeks): 3.72 /10; volunteers reporting improvement of cluster headache symptoms ([2]; overall, eight-week study): 91.67%
CCN(CC)C(=O)[C@@H]1C=C2c3cccc4c3c(cn4C(=O)C(C)(C)C)C[C@H]2N(C)C1 [SYN-L-024, 1-pivaloyl-lysergic acid diethylamide]	Partial	25%	Duration [1]: Shorter duration
CCCCCCCCCCCCCCCCCC(=O)n1cc2c3c(cccc31)C1=C[C@@H](C(=O)N(CC)CC)CN(C)[C@@H]1C2 [SYN-L-042, 1-stearoyl-lyserqic acid diethylamide]	Partial	25%	
CCCCCCCC/C=C\CCCCCCCC(=O)n1cc2c3c(cccc31)C1=C[C@@H](C(=O)N(CC)CC)CN(C)[C@@H]1C2 [SYN-L-043, 1-oleoyl-lyserqic acid diethylamide]	Partial	25%	
C=CCN1C[C@H](C(=O)N(C)C(C)C)C=C2c3cccc4c3c(cn4C(=O)CC)C[C@H]21 [SYN-L-073, 1-propionyl-6-allyl-6-nor-lysergic acid methylisopropylamide]	Partial	50%	
CC(=O)n1cc2c3c(cccc31)C1=C[C@@H](C(=O)N3CCOCC3)CN(C)[C@@H]1C2 [SYN-L-196, 1-acetyl-lysergic acid morpholide]	Partial	50%	
CCC(=O)n1cc2c3c(cccc31)C1=C[C@@H](C(=O)N(CC)C3CC3)CN(C)[C@@H]1C2 [SYN-L-197, 1-propionyl-lyserqic acid ethylcyclopropylamide]	Partial	50%	
C=C(C)CN1C[C@H](C(=O)N(CC)CC)C=C2c3cccc4c3c(cn4C(=O)CC)C[C@H]21 [SYN-L-203, 1-propionyl-6-methallyl-6-nor-lysergic acid diethylamide]	Partial	25%	
